Assay results published in patent publication US20090233907A1, “Pyridopyrimidine Derivatives and Their Use as PDE4 Inhibitors” (ASTRAZENECA AB, priority 2006, published 2009).
pIC50: −log10 of the molar value.

biological target: T1, recombinant Human Phosphodiesterase B2 (PDE4B2) (Homo sapiens, UniProt Q07343); test: Human Phosphodiesterase B2 Alpha Screen Assay; type: biochemical; conditions: Alpha Screen cAMP assay
Protocol: Human Phosphodiesterase B2 Alpha Screen Assay
The assay uses recombinant Human Phosphodiesterase B2 (PDE4B2) produced in house (PrAZL0133), stored at −20° C. The substrate uses cAMP, part of the Alpha Screen cAMP kit (Perkin Elmer, Cat# 6760625M), stored at 4° C. The Alpha Screen kit also includes biotinylated cAMP, acceptor and donor beads.
The assay additions were as follows: Test compounds and controls were added to white 384-well flat-bottom plates (Greiner, Cat# 781075), 0.2 μl in 100% DMSO, followed by 10 μl PDE4B2 in reaction buffer. The reaction buffer constitution was: 50 mM Tris (pH 7.5), 8.3 mM MgCl2, 1.7 mM EGTA and 0.01% (w/v) Brij®35. The enzyme and the compounds were incubated at room temperature for 15 minutes. Then 10 μl cAMP in reaction buffer was added. The assay was stopped after 60 minutes incubation at room temperature by adding 10 μl acceptor beads in detection buffer with 40 mM EDTA. The detection buffer constitution was: 5 mM Tris (pH 7.5), 0.1% (w/v) BSA and 0.1% (v/v) Tween 20. This addition followed by an addition of 10 μl donor beads in detection buffer, with biotinylated cAMP. The plates were then incubated, dark at room temperature, for 5 hours followed by measurement on a Fusion™-α analyser. IC50 values (presented in Table 4) were determined using Xlfit curve fitting using model 205.

T1 sequence (Q07343 1-564 isoform Q07343-2): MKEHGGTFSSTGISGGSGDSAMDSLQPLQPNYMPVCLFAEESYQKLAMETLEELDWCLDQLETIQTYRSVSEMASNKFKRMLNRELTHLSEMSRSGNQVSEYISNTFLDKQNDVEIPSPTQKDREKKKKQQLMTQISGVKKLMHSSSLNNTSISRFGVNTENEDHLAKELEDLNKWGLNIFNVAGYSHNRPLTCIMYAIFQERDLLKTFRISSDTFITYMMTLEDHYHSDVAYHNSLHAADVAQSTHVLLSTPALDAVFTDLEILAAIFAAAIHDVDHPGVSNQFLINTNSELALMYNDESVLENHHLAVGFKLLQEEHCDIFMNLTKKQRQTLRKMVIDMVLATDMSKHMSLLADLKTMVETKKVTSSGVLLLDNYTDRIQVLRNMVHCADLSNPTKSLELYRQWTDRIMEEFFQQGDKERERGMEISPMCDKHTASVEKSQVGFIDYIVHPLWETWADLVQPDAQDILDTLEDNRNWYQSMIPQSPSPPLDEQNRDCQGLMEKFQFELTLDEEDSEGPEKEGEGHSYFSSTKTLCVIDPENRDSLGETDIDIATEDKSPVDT

Compound	pIC50
O=C(N[C@H]1CC[C@@H](n2c(=O)c3cc(F)cnc3n(C3CCSCC3)c2=O)CC1)c1cc2ccccn2n1 [Example 4, N-{cis-4-[6-fluoro-2,4-dioxo-1-(tetrahydro-2H-thiopyran-4-yl)-1,4-dihydropyrido[2,3-d]pyrimidin-3(2H)-yl]cyclohexyl}pyrazolo[1,5-a]pyridine-2-carboxamide]	9.17
O=C(N[C@H]1CC[C@@H](n2c(=O)c3cc(F)cnc3n(C3CCSCC3)c2=O)CC1)c1cccc2cccnc12 [Example 3, N-{cis-4-[6-fluoro-2,4-dioxo-1-(tetrahydro-2H-thiopyran-4-yl)-1,4-dihydropyrido[2,3-d]pyrimidin-3(2H)-yl]cyclohexyl}quinoline-8-carboxamide]	8.88

The remaining lines, values ahead:

pIC50	Compound
8.37	O=C(N[C@H]1CC[C@@H](n2c(=O)c3cc(F)cnc3n(C3CCSCC3)c2=O)CC1)c1cc(CO)ccc1O [Example 26, N-{cis-4-[6-fluoro-2,4-dioxo-1-(tetrahydro-2H-thiopyran-4-yl)-1,4-dihydropyrido[2,3-d]pyrimidin-3(2H)-yl]cyclohexyl}-2-hydroxy-5-(hydroxymethyl)benzamide]
8.33	O=C(N[C@H]1CC[C@@H](n2c(=O)c3cc(F)cnc3n(C3CCSCC3)c2=O)CC1)c1ccccc1O [Example 17, N-{cis-4-[6-fluoro-2,4-dioxo-1-(tetrahydro-2H-thiopyran-4-yl)-1,4-dihydropyrido[2,3-d]pyrimidin-3(2H)-yl]cyclohexyl}-2-hydroxybenzamide]
8.56	O=C(N[C@H]1CC[C@@H](n2c(=O)c3cc(F)cnc3n(C3CCSCC3)c2=O)CC1)c1ccco1 [Example 24, N-{cis-4-[6-fluoro-2,4-dioxo-1-(tetrahydro-2H-thiopyran-4-yl)-1,4-dihydropyrido[2,3-d]pyrimidin-3(2H)-yl]cyclohexyl}-2-furamide]
8.87	O=C(N[C@H]1CC[C@@H](n2c(=O)c3cc(F)cnc3n(C3CCSCC3)c2=O)CC1)c1n[nH]c2ccccc12 [Example 5, N-{cis-4-[6-fluoro-2,4-dioxo-1-(tetrahydro-2H-thiopyran-4-yl)-1,4-dihydropyrido[2,3-d]pyrimidin-3(2H)-yl]cyclohexyl}-1H-indazole-3-carboxamide]

biological target: T1, recombinant Human Phosphodiesterase B2 (PDE4B2); test: Human Phosphodiesterase B2 Radiometric Assay; type: biochemical; conditions: radiometric SPA assay, [3H]cyclic AMP 8 nM, read-out: PDE4B2 pIC50 (converted)
Protocol: Human Phosphodiesterase B2 Radiometric Assay
The assay uses recombinant Human Phosphodiesterase B2 (PDE4B2) produced in house (PrAZL0163), stored at −20° C. This assay is based on the observation that 5′AMP, the product of the reaction catalysed by PDE4, binds preferentially to yttrium silicate SPA beads (Amersham Biosciences, UK) compared to the substrate, cAMP. Compounds at the appropriate concentration were preincubated at 30 C for 30 min with an assay buffer containing 50 mM HEPES (pH 7.5), 8.3 mM MgCl2, 1.7 mM EGTA, 0.01% (w/v) Brij®35 and 0.1 μg/mL recombinant PDE4B2. The reaction was started by the addition of [3H]cyclic AMP to give a final concentration of 8 nM, and was stopped 20 minutes after the addition of the substrate by the addition of yttrium silicate SPA beads containing 18 mM Zn SO4. Bound [3H]cyclic AMP was measured using a Topcount NXT (Packard Bioscience, UK). pIC50 values (presented in Table 5) were determined using Xlfit3 curve fitting, using model 205.

Compound	IC50
O=C(N[C@H]1CC[C@@H](n2c(=O)c3cc(F)cnc3n(C3CCSCC3)c2=O)CC1)c1cn2cc(F)ccc2n1 [Example 41, 6-fluoro-N-{cis-4-[6-fluoro-2,4-dioxo-1-(tetrahydro-2H-thiopyran-4-yl)-1,4-dihydropyrido[2,3-d]pyrimidin-3(2H)-yl]cyclohexyl}imidazo[1,2-a]pyridine-2-carboxamide]	0.126 nM
O=C(N[C@H]1CC[C@@H](n2c(=O)c3cc(F)cnc3n(C3CCSCC3)c2=O)CC1)c1cn2c(n1)CCCC2 [Example 33, N-{cis-4-[6-fluoro-2,4-dioxo-1-(tetrahydro-2H-thiopyran-4-yl)-1,4-dihydropyrido[2,3-d]pyrimidin-3(2H)-yl]cyclohexyl}-5,6,7,8-tetrahydroimidazo[1,2-a]pyridine-2-carboxamide]	0.398 nM

Results, then the molecule that gave them:

IC50	Compound
0.501 nM	CN(C)c1ccc(C(=O)NC2CCC(n3c(=O)c4cc(F)cnc4n(C4CCSCC4)c3=O)CC2)cc1 (stereo not shown) [Example 67, 4-dimethylamino-N-[4-(9-fluoro-2,4-dioxo-5-tetrahydrothiopyran-4-yl-3,5,7-triazabicyclo[4.4.0]deca-6,8,10-trien-3-yl)cyclohexyl]benzamide]
0.316 nM	O=C(N[C@H]1CC[C@@H](n2c(=O)c3cc(F)cnc3n(C3CCSCC3)c2=O)CC1)C(O)c1ccc(O)cc1 (stereo partly drawn) [Example 64b, N-{cis-4-[6-fluoro-2,4-dioxo-1-(tetrahydro-2H-thiopyran-4-yl)-1,4-dihydropyrido[2,3-d]pyrimidin-3(2H)-yl]cyclohexyl}-2-hydroxy-2-(4-hydroxyphenyl)acetamide]
